Test results reported in patent US20060041962A1, “Genes and uses thereof to modulate secondary metabolite biosynthesis” (priority 2002, published 2006).

Tests used:
tobacco BY-2 cells [1] = assay: cDNA-AFLP transcript profiling of jasmonate-elicited BY-2 cells; format: cell-based, Nicotiana tabacum; details: 50 μM methyl jasmonate vs DMSO-treated cells, approximately 20,000 tags analyzed
Method: Total RNA was prepared by LiCl precipitation (Sambrook, 1989). Starting from 5 μg total RNA, first-strand cDNA was synthesized by reverse transcription with a biotinylated oligo-dT25 primer (Genset, Paris, France) and Superscript II (Life Technologies, Gaithersburg, Md.). Second-strand synthesis was performed by strand displacement with Escherichia coli ligase (Life Technologies), DNA polymerase I (USB, Cleveland, Ohio) and RNAse-H (USB).
500 nanograms of double-stranded cDNA was used for AFLP analysis as described (Vos et al., 1995; Bachem et al., 1996) with modifications. The restriction enzymes used were BstYI and MseI (Biolabs) and the digestion was performed in two separate steps. […]
Scanned gel images were quantitatively analyzed using the AFLP QuantarPro image analysis software (Keygene N. V., Wageningen, N L). This software was designed for accurate lane definition, fragment detection, and quantification of band intensities. All visible AFLP fragments were scored and individual band intensities in each lane were measured. […] The correction factors were calculated based on constant bands throughout the time course. […] A coefficient of variation (CV) was calculated by dividing […]. […]

tobacco BY-2 cells [2] = assay: Nicotine alkaloid accumulation in methyl jasmonate elicited BY-2 cells (GC-MS); format: cell-based, Nicotiana tabacum
Method: (§1) Nicotiana tabacum BY-2 cells were cultured in modified Linsmaier-Skoog (LS) medium (Linsmaier & Skoog, 1965), as described by Nagata & Kumagai (1999). First, the growth curve of BY-2 cell culture was determined (FIG. 2) and the late exponential phase was used in elicitation experiments. Since the ability of high auxin concentration to inhibit the biosynthesis of nicotine is well known (Hibi et al., 1994; Ishikawa, et al., 1994), the six-day-old culture was prior elicitation washed and diluted 10-fold with fresh hormone free medium. After 12 hours, the cells were treated with methyl jasmonate (MeJA). MeJA (cis-form, Duchefa M0918) dissolved in dimethyl sulfoxide (DMSO) and was added to the culture medium at a final concentration of 50 μM. Same amount of DMSO alone served as a control. Samples for cDNA-AFLP analysis were taken at 0, 1, 2, 3, 4, 5, 6, 7, 8, 9, 10, 11, 12, 13, 14, 15, 16, 18, 20, 24, 36, 48, and 98 hours after jasmonate addition or at 0, 2, 4, 6, 8, 10, 12, 14, 16, 24, 36, 48, and 98 hours after DMSO addition, respectively. For alkaloid analysis, the samples were taken at 0, 12, 14, 24, 48 and 98 hours. Three replicate shake flasks pooled together yielded the total culture volume of 75 ml. After filtering (Miracloth) under vacuum the cells were lyophilized. Lyophilized cell samples were extracted for GC-MS analysis by a modified method described by Furuya et al. (1971). Cells were weighed and 25 μg of internal standard (5α-cholestan) was added. The samples were made alkaline with ammonia (10% (v/v), 1 ml) and water (2 ml) was added. Alkaloids were extracted by vortexing with 2 ml of dicloromethane. After 30 min the samples were centrifuged (2000 rpm, 10 min) and the lower organic layer was separated and transferred into glass vials. The samples were concentrated to 50 μl and 3 μl aliquots were injected to GC-MS. In some cases (for derivatization of free fatty acids and more polar compounds) the samples were silylated prior to GC-MS analysis. After evaporation to dryness, 25 μl of dichloromethane was added and silylation was performed by N-methyl-N-(trimethylsilyl)-trifluoro-acetamide (Pierce, Rockford, USA) at 120° C. for 20 min.

NsPMT2 promoter = NsPMT2 promoter EGFP-GUS reporter in transgenic BY-2 cell line 7 (GUS activity); format: cell-based, Nicotiana sylvestris
Excerpt: The PMT gene encodes the enzyme putrescine N-methyltransferase, catalysing the first committed step in the production of nicotinic alkaloids. Transcripts of Nicotiana sp. PMT genes are reported to be up regulated by methyl jasmonate. […] We have applied this knowledge and constructed a new reporter construct, called pHGWFS7-ppmt2, harbouring a EGFP-GUS fusion reporter gene (in Gateway® vector pHGWFS7; Karimi et al., Trends Plant Sci. 2002, 7(5):193-195), driven by the NsPMT2 promoter. To this end, primers were designed for the Adapter attB PCR protocol (InVitroGen) to amplify the NsPMT2 5′flanking region covering nucleotides −1713 to +3 (Table 3).
The pHGWFS7-ppmt2 construct was subsequently introduced in the ternary Agrobacterium tumefaciens transformation system, LBA4404.pBBR1-MCS-5.virGN54D (van der Fits et al., Plant Mol. Biol. 2000, 43(4):495-502), allowing efficient transformation of tobacco BY-2 cell cultures. Different independent transgenic lines were established and the jasmonate inducibility of the promoter in these transgenic BY-2 cells was confirmed (Table 4).
To illustrate the potential of this approach, BY-2-pmt2 cell line 7 was double transformed with the pK7WGD2-C330 construct, harbouring the MJM tag with SEQ ID No 148, an AP2-domain transcription factor encoding gene (also designated as C330 in this application), driven by the constitutive p35S promoter.

[3] = tested on: BY-2 reporter cell line (line 7); assay: Nicotine alkaloid content of BY-2 reporter cell line super-transformed with C330; format: cell-based, Nicotiana tabacum; details: line 7 + C330 vector, −2,4D + MeJA
Method: In a next step, we evaluated if there was a correlation between the GUS-activity in the BY-2 reporter cell line and nicotine alkaloid accumulation. […] Measurements in tables 6A and 6B were carried out in the presence or absence of synthetic auxins. “−2,4 D” means in the absence of dichlorophenoxy-acetic acid. “NAA” means in the presence of alfa-naphtalene-acetic acid. “DW” means dry weight, “MeJA” is with the addition of the elicitor methyl jasmonate, “DMSO” means with the addition of dimethylsulfoxide instead of MeJA.
as §1

CC/C=C\CC1C(=O)CCC1CC(=O)OC (centres unmarked) [MeJA, methyl jasmonate]
differential transcript tags (tobacco BY-2 cells [1]): 591
nicotine, anabasine, anatalline and anatabine content (tobacco BY-2 cells [2]; BY-2 cells elicited vs control samples): marked increase
highest concentration of anatabine (tobacco BY-2 cells [2]; BY-2 cells, 50 μM MeJA): 800 µg/g (d.w.)
maximum concentration of nicotine relative to anatabine (dry weight basis) (tobacco BY-2 cells [2]; BY-2 cells, 50 μM MeJA): 4%
start of anatabine accumulation after elicitation (tobacco BY-2 cells [2]; BY-2 cells, 50 μM MeJA): 24 h
start of nicotine accumulation after elicitation (tobacco BY-2 cells [2]; BY-2 cells, 50 μM MeJA): 14 h
time after which anabasine and two anatalline isomers increased (tobacco BY-2 cells [2]; BY-2 cells, 50 μM MeJA): 48 h
GUS activity (NsPMT2 promoter; BY-2 cell line 7, +MeJA, 0 h (Table 4)): 0.8 ± 1.0 units/mg protein/minute
GUS activity (NsPMT2 promoter; BY-2 cell line 7, +MeJA, 4 h (Table 4)): 2.0 ± 0.3 units/mg protein/minute
GUS activity (NsPMT2 promoter; BY-2 cell line 7, +MeJA, 8 h (Table 4)): 6.4 ± 0.3 units/mg protein/minute
GUS activity (NsPMT2 promoter; BY-2 cell line 7, +MeJA, 14 h (Table 4)): 29.1 ± 1.9 units/mg protein/minute
GUS activity (NsPMT2 promoter; BY-2 cell line 7, +MeJA, 24 h (Table 4)): 92.2 ± 6.4 units/mg protein/minute
GUS activity (NsPMT2 promoter; BY-2 line 7, +MeJA, 0 h (Table 5)): 0.0 ± 0.0 units/mg protein/minute
GUS activity (NsPMT2 promoter; BY-2 line 7, +MeJA, 24 h (Table 5)): 399.0 ± 56.4 units/mg protein/minute
GUS activity (NsPMT2 promoter; BY-2 line 7, +MeJA, 48 h (Table 5)): 663.0 ± 33.6 units/mg protein/minute
GUS activity (NsPMT2 promoter; BY-2 line 7-C330, +MeJA, 0 h): 1.0 ± 0.1 units/mg protein/minute
GUS activity (NsPMT2 promoter; BY-2 line 7-C330, +MeJA, 24 h): 276.7 ± 55.9 units/mg protein/minute
GUS activity (NsPMT2 promoter; BY-2 line 7-C330, +MeJA, 48 h): 347.8 ± 2.0 units/mg protein/minute
Anatabine ([3]; 0 h): 0.038 mg/g DW
Nicotine ([3]; 0 h): 0.008 mg/g DW
Anabasine ([3]; 24 h): 0.099 Mg/g DW
Anatabine ([3]; 24 h): 2.065 mg/g DW
Nicotine ([3]; 24 h): 0.271 mg/g DW
Anabasine ([3]; 48 h): 0.297 Mg/g DW
Anatabine ([3]; 48 h): 3.541 mg/g DW
Nicotine ([3]; 48 h): 0.283 mg/g DW
